Measured values as given in article PMC6941952, “A homogeneous bioluminescent immunoassay to probe cellular signaling pathway regulation” (Communications Biology, 2020).
Values joined by “and” are separate entries in the source; they are usually repeats but may differ in a detail not shown here. Equal values may be shown once. Where a SMILES comes first, the peptide text is derived from it. The star is where a group is joined. Cbz = O=C(OCc1ccccc1)*

Key:
[1] = tested on: phospho-IκBα (Ser32); assay: NanoBiT cell-based immunoassay, phosphorylated IκBα in MCF-7 cells; parameters: species or system human; details: for P-IkB Average: background subtracted
Description: (§1) Prior to NanoBiT Cell-Based Immunoassay, 50,000 cells were seeded in 160 µl of complete growth media per well of a 96-well plate and incubated overnight. The cells were checked under microscope and it was determined that 50,000 cells per well in 96-well plate is under 90% confluency for all cells tested. If necessary, the cell culture media were replaced with serum-free media after the cells were stably adherent on the plate and incubated overnight. To treat cells with activators or inhibitors, medium was changed to 30 µl of medium containing inhibitors. If activation of a specific pathway is needed, the cells were stimulated with 10 µl of medium containing activators. To lyse the cells, 10 µl of lysis buffer containing 0.1% digitonin diluted in 1X immunoassay buffer with protease and phosphatase inhibitors was added and the plates were mixed vigorously for 20 min. Then, 50 µl of an antibody mix containing two primary antibodies against the target protein and NanoBiT detecting antibodies (0.3 µl each per well), diluted in 1X immunoassay buffer was added to the lysates. The plates were incubated at 23 °C for 90 min, followed by the addition of 25 µl of Nano-Glo® reagent consisting of Nano-Glo® Luciferase Assay Substrate mixed with 1X immunoassay buffer. Luminescence was measured using a plate-reading luminometer.
In all, 50,000 MCF-7 cells were seeded in 160 µl complete growth medium per well of a 96-well plate and incubated overnight. Half of the cells were treated with 50 ng per ml TNFα and half with vehicle. Cells were lysed as described above and a mixture of NanoBiT secondary antibodies with primary antibodies at the matrix concentrations described in Fig. 2a were added. After 90 min incubation, the Nano-Glo® reagent was added to the reactions as described above and luminescence was measured using a plate-reading luminometer.
(§2) Single dose or dose response inhibitor treatments were performed prior to activation of the pathways as follows. For IκBα, the cells were treated in 30 µl medium with IKK16 or MG132 for 60 min before the addition of 10 µl of DMEM containing appropriate concentration of TNFα. To measure phosphorylation of AKT or STAT3, the corresponding NanoBiT immunoassays were developed with MCF-7 or A431 cells, respectively, according the same scheme used to develop the IκBα assay using the primary antibodies for AKT and STAT3 described in the reagents section. For the AKT assay, MCF-7 cells were incubated overnight in phenol-red free DMEM medium (Gibco #21063-029) without serum. Treatment with LY294002 was performed in 30 µl medium and cells were incubated for 60 min before the addition of 1 µM Insulin. To measure STAT3 phosphorylation, A431 cells were incubated overnight in DMEM medium without serum. […] After addition of the stimulators, the cells were incubated for additional times as follows. IκBα phosphorylation and degradation analyses required both time courses and single time points as described in figures. […] The NanoBiT immunoassay protocol was followed as described above.
(§3) All 96-well assay plates were read using a GloMax® 96 Microplate Luminometer from Promega. The instrument was set to 0.5 s integration time. In order to obtain net change of signal, the reagent background values (signal from the well containing all reagent except primary antibodies) were subtracted from the sample values. To plot and analyze the data, Microsoft Excel and GraphPad Prism® Software were used. IC50 values were determined by using a nonlinear regression fit to a sigmoidal dose response (variable slope).

[2] = tested on: total IκBα; assay: NanoBiT cell-based immunoassay, total IκBα in MCF-7 cells; parameters: species or system human; details: for Total IkB Average / IkB Average: background subtracted; for IKB with CHX Raw data / IKB with CHX Subtract reagent background / IkB Average: with CHX
Description: as §1, with “The cells were checked under microscope and it was determined that 50,000 cells per well in 96-well plate is under 90% confluency for all cells tested.” left out
as §2, with “For the AKT assay, MCF-7 cells were incubated overnight in phenol-red free DMEM medium (Gibco #21063-029) without serum.” left out
as §3

## CC(C)C[C@@H](C=O)NC(=O)[C@H](CC(C)C)NC(=O)[C@H](CC(C)C)NC(=O)OCc1ccccc1 [MG132] (Cbz-Leu-Leu-Leu-aldehyde)
[1]; MG132, TNF 0 min
  P-IkB Raw data: 22120 and 22340 and 21000 and 22420
  P-IkB Subtract reagent background: 5850 and 5550 and 5770 and 4430
  P-IkB Average: 5400
[1]; MG132, TNF 2 min
  P-IkB Raw data: 23520 and 22950 and 21920 and 24690
  P-IkB Subtract reagent background: 8120 and 6950 and 6380 and 5350
  P-IkB Average: 6700
[1]; MG132, TNF 4 min
  P-IkB Raw data: 23590 and 23010 and 22240 and 23600
  P-IkB Subtract reagent background: 7030 and 7020 and 6440 and 5670
  P-IkB Average: 6540
[1]; MG132, TNF 6 min
  P-IkB Raw data: 26150 and 25190 and 24160 and 26140
[1]; MG132, TNF 8 min
  P-IkB Raw data: 31970 and 30150 and 26560 and 32480
  P-IkB Subtract reagent background: 15910 and 15400 and 13580 and 9990
  P-IkB Average: 13720
[1]; MG132, TNF 10 min
  P-IkB Raw data: 38930 and 36060 and 31570 and 39590
  P-IkB Subtract reagent background: 23020 and 22360 and 19490 and 15000
  P-IkB Average: 19968
[1]; MG132, TNF 12 min
  P-IkB Raw data: 47120 and 43420 and 37410 and 48430
  P-IkB Subtract reagent background: 31860 and 30550 and 26850 and 20840
  P-IkB Average: 27525
[1]; MG132, TNF 15 min
  P-IkB Raw data: 56120 and 51230 and 43530 and 56550
  P-IkB Subtract reagent background: 39980 and 39550 and 34660 and 26960
  P-IkB Average: 35288
[1]; MG132, TNF 30 min
  P-IkB Raw data: 63690 and 60630 and 51570 and 63760
  P-IkB Subtract reagent background: 47190 and 47120 and 44060 and 35000
  P-IkB Average: 43343
[2]; MCF-7 cells, 20 µM 1 h pretreatment, TNFα 50 ng per ml
  TNFα-induced degradation of IκBα: inhibited
[2]; MG132, TNF 0 min
  Total IkB Raw data: 86990 and 84090 and 85790 and 87340
  Total IkB Subtract reagent background: 70533 and 70183 and 67283 and 68983
  Total IkB Average: 69245
[2]; MG132, TNF 2 min
  Total IkB Raw data: 89610 and 87100 and 86710 and 88460
  Total IkB Subtract reagent background: 71653 and 72803 and 70293 and 69903
  Total IkB Average: 71163
[2]; MG132, TNF 4 min
  Total IkB Raw data: 87350 and 84610 and 87580 and 85650
  Total IkB Subtract reagent background: 68843 and 70543 and 67803 and 70773
  Total IkB Average: 69490
[2]; MG132, TNF 6 min
  Total IkB Raw data: 86900 and 82270 and 84580 and 89030
  Total IkB Subtract reagent background: 72223 and 70093 and 65463 and 67773
  Total IkB Average: 68888
[2]; MG132, TNF 8 min
  Total IkB Raw data: 86550 and 79990 and 82380 and 88200
  Total IkB Subtract reagent background: 71393 and 69743 and 63183 and 65573
  Total IkB Average: 67473
[2]; MG132, TNF 10 min
  Total IkB Raw data: 86190 and 79560 and 78070 and 90680
  Total IkB Subtract reagent background: 73873 and 69383 and 62753 and 61263
  Total IkB Average: 66818
[2]; MG132, TNF 12 min
  Total IkB Raw data: 85440 and 78280 and 77940 and 85890
  Total IkB Subtract reagent background: 69083 and 68633 and 61473 and 61133
  Total IkB Average: 65080
[2]; MG132, TNF 15 min
  Total IkB Raw data: 85380 and 79290 and 77150 and 87460
  Total IkB Subtract reagent background: 70653 and 68573 and 62483 and 60343
  Total IkB Average: 65513
[2]; MG132, TNF 30 min
  Total IkB Raw data: 74090 and 69470 and 69970 and 74150
  Total IkB Subtract reagent background: 57343 and 57283 and 52663 and 53163
  Total IkB Average: 55113

## C[C@@H]1C[C@@H]([C@H](O)CC2CC(=O)NC(=O)C2)C(=O)[C@@H](C)C1 [CHX]
[2]; TNF 0 min
  IKB with CHX Raw data: 55360 and 57660 and 54100 and 60230
  IKB with CHX Subtract reagent background: 43590 and 45890 and 42330 and 48460
  IkB Average: 45068
[2]; TNF 5 min
  IKB with CHX Raw data: 58100 and 62010 and 65600 and 63320
  IKB with CHX Subtract reagent background: 46330 and 50240 and 53830 and 51550
  IkB Average: 50488
[2]; TNF 10 min
  IKB with CHX Raw data: 40310 and 45450 and 45320 and 45290
  IKB with CHX Subtract reagent background: 28540 and 33680 and 33550 and 33520
  IkB Average: 32323
[2]; TNF 20 min
  IKB with CHX Raw data: 19760 and 23860 and 25280
  IKB with CHX Subtract reagent background: 7990 and 12090 and 13510
  IkB Average: 10395
[2]; TNF 30 min
  IKB with CHX Raw data: 17770 and 17940 and 21410 and 21590
  IKB with CHX Subtract reagent background: 6000 and 6170 and 9640 and 9820
  IkB Average: 7908
[2]; TNF 40 min
  IKB with CHX Raw data: 17270 and 17950 and 20500 and 19500
  IKB with CHX Subtract reagent background: 5500 and 6180 and 8730 and 7730
  IkB Average: 7035
[2]; TNF 60 min
  IKB with CHX Raw data: 18390 and 17430 and 19370 and 18920
  IKB with CHX Subtract reagent background: 6620 and 5660 and 7600 and 7150
  IkB Average: 6758
[2]; TNF 80 min
  IKB with CHX Raw data: 19070 and 18960 and 19260 and 19280
  IKB with CHX Subtract reagent background: 7300 and 7190 and 7490 and 7510
  IkB Average: 7373
[2]; TNF 100 min
  IKB with CHX Raw data: 19610 and 18970 and 19990 and 19730
  IKB with CHX Subtract reagent background: 7840 and 7200 and 8220 and 7960
  IkB Average: 7805
[2]; TNF 120 min
  IKB with CHX Raw data: 20170 and 20220 and 20080 and 18790
  IKB with CHX Subtract reagent background: 8400 and 8450 and 8310 and 7020
  IkB Average: 8045

## C[C@@H]1C[C@@H]([C@H](O)CC2CC(=O)NC(=O)C2)C(=O)[C@@H](C)C1 [cycloheximide]
[2]; MCF-7 cells, TNFα 50 ng per ml, 20 µg per ml added after 30 min
  IκBα after the degradation phase (de novo synthesis): not detected
